From patent publication US20070066632A1, “Fused bicyclic inhibitors of TGFbeta” (Scios, Inc., priority 2005, published 2007) come the findings set out here.

Structures are written as SMILES.

The target in one assay is T1, TGFβ R1 (Homo sapiens, UniProt P36897).
T1 sequence (P36897 34-503): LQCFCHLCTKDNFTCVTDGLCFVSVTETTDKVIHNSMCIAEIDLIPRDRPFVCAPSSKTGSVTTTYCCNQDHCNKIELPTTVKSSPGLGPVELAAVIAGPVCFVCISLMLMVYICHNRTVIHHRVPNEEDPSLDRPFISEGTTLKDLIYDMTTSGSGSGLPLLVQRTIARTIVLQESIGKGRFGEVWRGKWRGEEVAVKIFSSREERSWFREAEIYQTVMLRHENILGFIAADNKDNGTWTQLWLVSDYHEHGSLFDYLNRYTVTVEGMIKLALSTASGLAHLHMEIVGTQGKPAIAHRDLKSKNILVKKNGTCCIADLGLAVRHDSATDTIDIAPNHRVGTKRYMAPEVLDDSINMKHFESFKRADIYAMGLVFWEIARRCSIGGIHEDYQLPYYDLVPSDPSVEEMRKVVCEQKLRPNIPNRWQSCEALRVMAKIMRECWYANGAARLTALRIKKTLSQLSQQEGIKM
The experiment in a line: TGFβ R1 autophosphorylation protocol. The format is biochemical. As to conditions: 10 uM ATP, 170 nM TGFβ R1, 20 minutes at room temperature; read-out: IC50 for Kinase Inhibition. Here is the method:
The compounds of the invention were tested for their ability to inhibit TGFβ by a TGFβ R^1 autophosphorylation protocol. This was conducted as follows: Compound dilutions and reagents were prepared fresh daily. Compounds were diluted from DMSO stock solutions to 2 times the desired assay concentration, keeping final DMSO concentration in the assay less than or equal to 1%. TGFβ R1 was diluted to 4 times the desired assay concentration in buffer+DTT. ATP was diluted into 4× reaction buffer, and gamma-^33P-ATP was added at 60 uCi/mL.
The assay was performed by adding 10 ul of the enzyme to 20 ul of the compound solution. The reaction was initiated by the addition of 10 ul of ATP mix. Final assay conditions included 10 uM ATP, 170 nM TGFβ R1, and […] in 20 mM MOPS, pH7. The reactions were incubated at room temperature for 20 minutes. The reactions were stopped by transferring 23 ul of reaction mixture onto a phosphocellulose 96-well filter plate, which had been pre-wetted with 15 ul of 0.25M H3PO4 per well. After 5 minutes, the wells were washed 4× with 75 mM H3PO4 and once with 95% ethanol. The plate was dried, scintillation cocktail was added to each well, and the wells were counted in a Packard TopCount microplate scintillation counter.
As for `COc1ccc(CNc2ccc3c(Nc4ccncc4C(=O)NC4CC4)nc(-c4cc(Cl)ccc4F)nc3n2)cc1` [Compound 8], the IC50 worked out at 1400 nM. Still for that read-out and setting: the value for `CCOC(=O)c1cnccc1Nc1nc(-c2cc(Cl)ccc2F)nc2ncccc12` [Compound 13] was 530 nM; that for `COc1ccc(CNc2ccc3c(Nc4ccncc4C(=O)NCCCN4CCOCC4)nc(-c4cc(Cl)ccc4F)nc3n2)cc1` [Compound 18] was 990 nM. Turning to `CN(Cc1ccccc1)c1ccc2c(Nc3ccncc3C(=O)O)nc(-c3cc(Cl)ccc3F)nc2n1` [Compound 14], the IC50 amounted to 225 nM.

Turning to `CNC(=O)c1cnccc1Nc1nc(-c2cc(Cl)ccc2F)nc2ncccc12` [Compound 2], the IC50 came out at 70 nM. Consider `CNC(=O)c1cnccc1Nc1nc(-c2cc(Cl)ccc2F)nc2nc(NCCN(C)C)ccc12` [Compound 5], for which the IC50 was 6040 nM. On the same count and under the same terms, the same measure for `O=C(O)c1cnccc1Nc1nc(-c2cc(Cl)ccc2F)nc2ncccc12` [Compound 12]: 230 nM; for `COC(=O)c1cnccc1Nc1nc(-c2cc(Cl)ccc2F)nc2ncccc12` [Compound 11]: 1370 nM.

In the case of `COC(=O)c1cnccc1Nc1nc(-c2cc(Cl)ccc2F)nc2nc(N(Cc3ccc(OC)cc3)Cc3ccc(OC)cc3)ccc12` [Compound 16], the IC50 is 745 nM. In the case of `CNC(=O)c1cnccc1Nc1nc(-c2cc(Cl)ccc2F)nc2nc(N)ccc12` [Compound 4], the IC50 came out at 30 nM. For `C[C@H](O)CNC(=O)c1cnccc1Nc1nc(-c2cc(Cl)ccc2F)nc2nc(N)ccc12` [Compound 10], the IC50 is 5010 nM. Consider `NC(=O)c1cnccc1Nc1nc(-c2cc(Cl)ccc2F)nc2ncccc12` [Compound 1], for which the IC50 amounted to 20 nM.

With `Nc1ccc2c(Nc3ccncc3C(=O)NC3CC3)nc(-c3cc(Cl)ccc3F)nc2n1` [Compound 9], the IC50 worked out at 2700 nM.

As for `CC(O)CNC(=O)c1cnccc1Nc1nc(-c2cc(Cl)ccc2F)nc2nc(NCCN(C)C)ccc12` (stereo not shown) [Compound 6], the IC50 turned out to be 12200 nM. The same measure, in the same setting: the value for `COc1ccc(CN(Cc2ccc(OC)cc2)c2ccc3c(Nc4ccncc4C(=O)O)nc(-c4cc(Cl)ccc4F)nc3n2)cc1` [Compound 15] was 569 nM. For the compound `CNC(=O)c1cnccc1Nc1nc(-c2cc(Cl)ccc2F)nc2nc(NCCOC)ccc12` [Compound 7], the IC50 turned out to be 980 nM. Regarding `CNC(=O)c1cnccc1Nc1nc(-c2cc(Cl)ccc2NC)nc2ncccc12` [Compound 3], the IC50 is 1600 nM.

Another assay deals with HCV replicons (HCV type 1b NS3-NS5B) in Huh-Luc cells. The experiment in a line: HCV replicon assay (Huh-7 luc/neo, luciferase reporter). The format is cell-based. As to conditions: Hepatitis C virus, Huh-7, 72 h, incubation of three days, luciferase activity. From the text: The pyrido[2,3-d]pyrimidine compounds of the present invention were examined for activity in the inhibition of HCV RNA replication in a cellular assay. […] The cellular assay was based on a bicistronic expression construct, as described by Lohmann et al. (1999) Science vol. 285 pp. 110-113 with modifications described by Krieger et al. (2001) Journal of Virology 75: 4614-4624, in a multi-target screening strategy. In essence, the method was as follows.
The assay utilized the stably transfected cell line Huh-7 luc/neo (hereafter referred to as Huh-Luc). […]
The replicon cells were plated in 384-well plates in the presence of the test and control compounds which were added in various concentrations. Following an incubation of three days, HCV replication was measured by assaying luciferase activity (using standard luciferase assay substrates and reagents and a Perkin Elmer ViewLux™, ultraHTS microplate imager). […] The inhibitory activity of the compound on luciferase activity was monitored on the Huh-Luc cells, enabling a dose-response curve for each test compound. […]
The replicon cells are plated in 384 well plates in the presence of the test and control compounds which are added in various concentrations. […] The inhibitory activity of the compound on luciferase activity is monitored on the Huh-Luc cells, enabling a dose-response curve for each test compound.
As for `CNC(=O)c1cnccc1Nc1nc(-c2cc(Cl)ccc2F)nc2ncccc12` [Compound 2], a half-maximal response (EC50) required 11.9 µM. `NC(=O)c1cnccc1Nc1nc(-c2cc(Cl)ccc2F)nc2ncccc12` [Compound 1] had an EC50 of 0.76 µM. This EC50 lies about 16-fold lower than the previous one.
